# Reference: PubChem BioAssay (NCI)
#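 A five-concentration, 48-hour dose response in 96-well plates underlies each endpoint, interpolated linearly between surrounding concentrations. GI50 is the concentration that inhibits growth by half. The concentration for full growth arrest is given as TGI.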
# Columns and labels:
# Test in all cases: NCI anticancer screen, dose series, 48 h
# PC-3 prostate = tested on: PC-3 prostate
# LOX IMVI melanoma = tested on: LOX IMVI melanoma
# 786-0 renal = tested on: 786-0 renal
# NCI-H460 lung = tested on: NCI-H460 lung
# A549 NSCLC = tested on: A549 NSCLC
# MDA-MB-231 breast = tested on: MDA-MB-231 breast
# COLO 205 colon = tested on: COLO 205 colon
# HL-60(TB) leukemia = tested on: HL-60(TB) leukemia
# SN12C renal = tested on: SN12C renal
# SK-OV-3 ovarian = tested on: SK-OV-3 ovarian
# UACC-257 melanoma = tested on: UACC-257 melanoma
# ACHN renal = tested on: ACHN renal
# M14 melanoma = tested on: M14 melanoma
# CCRF-CEM leukemia = tested on: CCRF-CEM leukemia
# OVCAR-4 ovarian = tested on: OVCAR-4 ovarian
# MDA-MB-435 = tested on: MDA-MB-435
# SR leukemia = tested on: SR leukemia
# SNB-19 CNS = tested on: SNB-19 CNS
# SF-539 CNS = tested on: SF-539 CNS
# MCF7 breast = tested on: MCF7 breast
# K-562 leukemia = tested on: K-562 leukemia
# U251 CNS = tested on: U251 CNS
# IGROV1 ovarian = tested on: IGROV1 ovarian
# OVCAR-3 ovarian = tested on: OVCAR-3 ovarian
# HCT-15 colon = tested on: HCT-15 colon
# SK-MEL-28 melanoma = tested on: SK-MEL-28 melanoma
# OVCAR-5 ovarian = tested on: OVCAR-5 ovarian
# NCI-H522 lung = tested on: NCI-H522 lung
# SW-620 colon = tested on: SW-620 colon
# KM12 colon = tested on: KM12 colon
# HCC-2998 colon = tested on: HCC-2998 colon
# HCT-116 colon = tested on: HCT-116 colon
# SK-MEL-5 melanoma = tested on: SK-MEL-5 melanoma
# HOP-92 NSCLC = tested on: HOP-92 NSCLC
# NCI/ADR-RES ovarian = tested on: NCI/ADR-RES ovarian
# SK-MEL-2 melanoma = tested on: SK-MEL-2 melanoma
# OVCAR-8 ovarian = tested on: OVCAR-8 ovarian
# RPMI-8226 leukemia = tested on: RPMI-8226 leukemia
# DU-145 prostate = tested on: DU-145 prostate
# A498 renal = tested on: A498 renal
# TK-10 renal = tested on: TK-10 renal
# NCI-H23 lung = tested on: NCI-H23 lung
# SF-268 CNS = tested on: SF-268 CNS
# UACC-62 melanoma = tested on: UACC-62 melanoma
# HT29 colon = tested on: HT29 colon
# RXF 393 renal = tested on: RXF 393 renal
# MALME-3M melanoma = tested on: MALME-3M melanoma
# UO-31 renal = tested on: UO-31 renal
# BT-549 breast = tested on: BT-549 breast
# CAKI-1 renal = tested on: CAKI-1 renal
# T-47D breast = tested on: T-47D breast
# HOP-62 NSCLC = tested on: HOP-62 NSCLC
# NCI-H226 lung = tested on: NCI-H226 lung
# MOLT-4 leukemia = tested on: MOLT-4 leukemia
# HS 578T breast = tested on: HS 578T breast
smiles,measurement,setting,value
COc1cc2ccnc(C=O)c2cc1OC,GI50,PC-3 prostate,23.9 µM
same,TGI,PC-3 prostate,> 100 µM
same,GI50,LOX IMVI melanoma,10.1 µM
same,TGI,LOX IMVI melanoma,> 100 µM
same,GI50,786-0 renal,18.3 µM
same,TGI,786-0 renal,> 100 µM
same,GI50,NCI-H460 lung,> 100 µM
same,TGI,NCI-H460 lung,> 100 µM
same,GI50,A549 NSCLC,> 100 µM
same,TGI,A549 NSCLC,> 100 µM
same,GI50,MDA-MB-231 breast,6.51 µM
same,TGI,MDA-MB-231 breast,75.1 µM
same,GI50,COLO 205 colon,> 100 µM
same,TGI,COLO 205 colon,> 100 µM
same,GI50,HL-60(TB) leukemia,2.2 µM
same,TGI,HL-60(TB) leukemia,5.89 µM
same,GI50,SN12C renal,12.1 µM
same,TGI,SN12C renal,> 100 µM
same,GI50,SK-OV-3 ovarian,> 100 µM
same,TGI,SK-OV-3 ovarian,> 100 µM
same,GI50,UACC-257 melanoma,18.9 µM
same,TGI,UACC-257 melanoma,> 100 µM
same,GI50,ACHN renal,4.71 µM
same,TGI,ACHN renal,54.8 µM
same,GI50,M14 melanoma,4.98 µM
same,TGI,M14 melanoma,28.5 µM
same,GI50,CCRF-CEM leukemia,3.08 µM
same,TGI,CCRF-CEM leukemia,22.1 µM
same,GI50,OVCAR-4 ovarian,5.11 µM
same,TGI,OVCAR-4 ovarian,24.2 µM
same,GI50,MDA-MB-435,2.63 µM
same,TGI,MDA-MB-435,24.9 µM
same,GI50,SR leukemia,0.696 µM
same,TGI,SR leukemia,> 100 µM
same,GI50,SNB-19 CNS,> 100 µM
same,TGI,SNB-19 CNS,> 100 µM
same,GI50,SF-539 CNS,5.65 µM
same,TGI,SF-539 CNS,29.7 µM
same,GI50,MCF7 breast,3.64 µM
same,TGI,MCF7 breast,> 100 µM
same,GI50,K-562 leukemia,4.84 µM
same,TGI,K-562 leukemia,> 100 µM
same,GI50,U251 CNS,28.7 µM
same,TGI,U251 CNS,> 100 µM
same,GI50,IGROV1 ovarian,22.8 µM
same,TGI,IGROV1 ovarian,> 100 µM
same,GI50,OVCAR-3 ovarian,6.36 µM
same,TGI,OVCAR-3 ovarian,90.6 µM
same,GI50,HCT-15 colon,3.43 µM
same,TGI,HCT-15 colon,> 100 µM
same,GI50,SK-MEL-28 melanoma,12.4 µM
same,TGI,SK-MEL-28 melanoma,> 100 µM
same,GI50,OVCAR-5 ovarian,17 µM
same,TGI,OVCAR-5 ovarian,> 100 µM
same,GI50,NCI-H522 lung,12.5 µM
same,TGI,NCI-H522 lung,31.3 µM
same,GI50,SW-620 colon,4.15 µM
same,TGI,SW-620 colon,> 100 µM
same,GI50,KM12 colon,31.9 µM
same,TGI,KM12 colon,> 100 µM
same,GI50,HCC-2998 colon,23.8 µM
same,TGI,HCC-2998 colon,> 100 µM
same,GI50,HCT-116 colon,1.92 µM
same,TGI,HCT-116 colon,14.8 µM
same,GI50,SK-MEL-5 melanoma,10.7 µM
same,TGI,SK-MEL-5 melanoma,23.6 µM
same,GI50,HOP-92 NSCLC,1.18 µM
same,TGI,HOP-92 NSCLC,5.93 µM
same,GI50,NCI/ADR-RES ovarian,16 µM
same,TGI,NCI/ADR-RES ovarian,> 100 µM
same,GI50,SK-MEL-2 melanoma,37.1 µM
same,TGI,SK-MEL-2 melanoma,> 100 µM
same,GI50,OVCAR-8 ovarian,5.45 µM
same,TGI,OVCAR-8 ovarian,63.4 µM
same,GI50,RPMI-8226 leukemia,3.44 µM
same,TGI,RPMI-8226 leukemia,34.8 µM
same,GI50,DU-145 prostate,4.83 µM
same,TGI,DU-145 prostate,> 100 µM
same,GI50,A498 renal,> 100 µM
same,TGI,A498 renal,> 100 µM
same,GI50,TK-10 renal,6.02 µM
same,TGI,TK-10 renal,44.1 µM
same,GI50,NCI-H23 lung,24.9 µM
same,TGI,NCI-H23 lung,> 100 µM
same,GI50,SF-268 CNS,23.5 µM
same,TGI,SF-268 CNS,> 100 µM
same,GI50,UACC-62 melanoma,6.87 µM
same,TGI,UACC-62 melanoma,38.1 µM
same,GI50,HT29 colon,3.3 µM
same,TGI,HT29 colon,> 100 µM
same,GI50,RXF 393 renal,1.45 µM
same,TGI,RXF 393 renal,4.98 µM
same,GI50,MALME-3M melanoma,14.7 µM
same,TGI,MALME-3M melanoma,> 100 µM
same,GI50,UO-31 renal,3.98 µM
same,TGI,UO-31 renal,42.2 µM
same,GI50,BT-549 breast,2.68 µM
same,TGI,BT-549 breast,7.14 µM
same,GI50,CAKI-1 renal,23 µM
same,TGI,CAKI-1 renal,85.2 µM
same,GI50,T-47D breast,14 µM
same,TGI,T-47D breast,> 100 µM
same,GI50,HOP-62 NSCLC,18.2 µM
same,TGI,HOP-62 NSCLC,98.1 µM
same,GI50,NCI-H226 lung,29.9 µM
same,TGI,NCI-H226 lung,> 100 µM
same,GI50,MOLT-4 leukemia,4.52 µM
same,TGI,MOLT-4 leukemia,41.4 µM
same,GI50,HS 578T breast,23.8 µM
same,TGI,HS 578T breast,> 100 µM
